Values joined by “and” are separate entries in the source; they are usually repeats but may differ in a detail not shown here. Equal values may be shown once.
Columns and labels:
HIV [1] = assay: microbe, parasite or virus in culture; assay type: cell-based; details: CEM cells, free HIV, read-out: Activity of Anti-HIV Compounds (EC50), CEMV
Method: (§1) The compounds of Examples were tested for anti-AIDS activity by subjecting them to standard National Cancer Institute ("NCI") in vitro screening procedures. In carrying out each test, two blanks were run. In the first blank, HIV and a culture of a standard human cell line were incubated together to measure the infectivity of the virus. The viability of the cells was measured after holding for six or seven days. In an "effective" test, most cells were infected before the holding period was complete.
In the second blank, the cell line culture and the compound being tested (but not virus) were incubated together to measure the toxicity of the drug to the cellline. The viability of the cells was measured as a function of concentration of the compound, after holding for seven days. Typically, the cells survive at low compound concentrations, but at some higher concentration, toxicity of the compound is manifested and the cells die. The concentration of the test compound that results in 50% inhibition of cell growth is defined as the IC50.
(§2) Finally, the protective effects of the test compounds were measured. Each cell culture and test compound were incubated with the virus and the viability of the cells was measured as a function of compound concentration after holding for six or seven days. If the compound is active in protecting the cells against the virus, there is typically low cell viability until an effective concentration of the test compound is reached. At this point, cell viability increases steadily toward 100% unless the toxic effect of the compound (as measured in the second blank) takes effect. The concentration of the test compound that results in 50% "control," i.e., a 50% reduction of the viral cytopathic effect, is defined as the EC 50. The therapeutic index TI50 is calculated as IC50/EC50.
(§3) Values of test compound concentrations required for between 20 and 50% reduction of the viral cytopathic effect can also be determined. Such compounds are classified as moderately active.
(§4) The compounds were tested to determine their reduction of HIV cytopathic effect on the human cell lines CEM and MT2. Tests were done by innoculating these cell lines either with free HIV (V) or with a virus Previously cultured with host cells (C). Thus, in Table III the designation CEMV means CEM line cells innoculated with free virus and MT2C means MT2 cells innoculated with cultured viral infected MT2 cells. In some cases the compound was also tested on a cell line together with a sub-effective amount of the known HIV viricide AZT. This is done to test possible synergistic effects. Such a test on the CEM line is denoted CEMZ.
(§5) 1) T4 lymphocytes (CEM cell line) are exposed to HIV at a virus to cell ratio of approximately 0.05 and plated along with non-infected control cells in 96-well microtiter plates.
(§6) 2) Each candidate agent is dissolved in dimethyl sulfoxide (unless otherwise indicated), then diluted 1:200 in cell culture medium. Further dilutions (five-fold) are prepared before adding to an equal volume of medium containing either infected or noninfected cells.
(§7) 3) Cultures are incubated at 37° C. in a 5% carbon dioxide atmosphere for seven days (if six days the CEMV test is identified as CEM-6).
(§8) 4) The tetrazolium salt, XTT, is added to all wells, and cultures are incubated to allow formazan color development by viable cells.
(§9) 5) Individual wells are analyzed spectrophotometrically to quantity formazan production, and in addition are viewed microscopically for detection of viable cells and confirmation of protective activity.
(§10) 6) Drug-treated virus-infected cells are compared with drug-treated non-infected cells and with other appropriate controls (untreated infected and untreated non-infected cells, drug-containing wells without cells, etc.) on the same plate.
7) A determination of activity is made. […]

HIV [2] = assay: Reduction of HIV cytopathic effect, CEM-6 (CEMV test, six days); assay type: cell-based; details: CEM cells; for EC50: free HIV, read-out: Activity of Anti-HIV Compounds (EC50), CEM-6; for Activity class of Anti-HIV Compounds, CEM-6: inhibition of viral cytopathic effect, 8640 min
Method: as §1, §2, §3, §4, §5, §6, §7, §8, §9, §10

[3] = Human immunodeficiency virus 1, CCRF-CEM
[4] = Human immunodeficiency virus 1, CCRF-CEM, 144 h

Compound	EC50 (HIV [2])	Activity class of Anti-HIV Compounds, CEM-6 (HIV [2])	further results
CCCCCOC(=O)c1cc(NC(=O)C2=C(C)OCCS2)ccc1Cl [Compound 15, Pentyl 2-chloro-5-[[(5,6-dihydro-2-methyl-1,4-oxathiin-3-yl)carbonyl]amino]benzoate]	–	–	EC50 (HIV [1]): 610 nM; EC50 (HIV [1]; [3]): 820 nM
CC(C)OC(=O)c1cc(NC(=O)c2c(Br)c(Br)c(Br)c(Br)c2C(=O)O)c(F)cc1Cl [Compound 20, 2,3,4,5-Tetrabromo-6-[[[4-chloro-2-fluoro-5-[(1-methylethoxy)carbonyl]phenyl]amino]carbonyl]benzoic acid]	–	–	EC50 (HIV [1]): 58700 nM and 69400 nM and 54500 nM; EC50 (HIV [1]; [3]): 69500 nM
CC(C)OC(=O)c1cc(NC(=O)c2c(Br)c(Br)c(Br)c(Br)c2C(=O)O)ccc1Cl [Compound 21, 2,3,4,5-Tetrabromo-6-[[[4-chloro-3-[(1-methylethoxy)carbonyl]phenyl]amino]carbonyl]benzoic acid]	–	–	EC50 (HIV [1]): 36200 nM; EC50 (HIV [1]; [3]): 58200 nM
CC1=C(C(=O)Nc2ccc(Cl)c(C(=O)OC(C)C)c2)SCCS1 [Compound 27, 1-Methylethyl 2-chloro-5[[(5,6-dihydro-3-methyl-1,4-dithiin-2-yl)carbonyl]amino]benzoate]	–	–	EC50 (HIV [1]): 810 nM; EC50 (HIV [1]; [3]): 1380 nM
CC(C)OC(=O)c1cc(NC(=O)C(C)(C)C)c(F)cc1Cl [Compound 30, 1-Methylethyl 2-chloro-5-[(2,2-dimethyl-1-oxopropyl)amino]-4-fluorobenzoate]	–	–	EC50 (HIV [1]; [3]): 42700 nM
CC(C)OC(=O)c1cc(NC(=S)OC(C)C)ccc1Cl [Compound 32, 1-Methylethyl 2-chloro-5-[[(1-methylethoxy)thioxomethyl]amino]benzoate]	–	–	EC50 (HIV [1]): 59 nM and 30 nM; EC50 (HIV [1]; [3]): 35 nM
CC(C)OC(=O)c1cc(NC(=S)OC2CCCCC2)ccc1Cl [Compound 44]	1340 nM	–	EC50 (HIV [2]; [4]): 760 nM
CC(C)OC(=O)c1cc(NC(=S)OCC2CC2)ccc1Cl [Compound 46]	53 nM	–	–
CC(C)OC(=O)c1cc(NC(=S)N(C)C)ccc1Cl [Compound 48]	–	MA (moderate activity (MA), that is, inhibition between approximately 20 and 50%)	–
CC(C)NC(=S)Nc1ccc(Cl)c(C(=O)OC(C)C)c1 [Compound 49]	–	MA (moderate activity (MA), that is, inhibition between approximately 20 and 50%)	–
COCCOC(=O)c1cc(NC(=O)C2=C(C)OCCS2)ccc1Cl [Compound 69]	–	–	EC50 (HIV [2]; [4]): 340 nM
CCCC1=C(C(=O)Nc2ccc(Cl)c(C(=O)OCC)c2)SCCO1 [Compound 70, Ethyl 2-chloro-5-[[(5,6-dihydro-2-propyl-1,4-oxathiin-3-yl)carbonyl]amino]benzoate]	210 nM and 230 nM	–	EC50 (HIV [2]; [4]): 170 nM
CCCC1=C(C(=O)Nc2ccc(Cl)c(C(=O)OC)c2)SCCO1 [Compound 71, Methyl 2-chloro-5-[[(5,6-dihydro-2-propyl-1,4-oxathiin-3-yl)-carbonyl]amino]benzoate]	1830 nM and 1620 nM	–	EC50 (HIV [2]; [4]): 990 nM
CC1=C(C(=O)Nc2ccc(F)c(C(=O)OC(C)C)c2)SCCO1 [Compound 72]	590 nM and 340 nM	–	EC50 (HIV [2]; [4]): 540 nM
CC1=C(C(=O)Nc2ccc(C)c(C(=O)OC(C)C)c2)SCCO1 [Compound 73]	580 nM	–	EC50 (HIV [2]; [4]): 410 nM
CCC1=C(C(=O)Nc2ccc(Cl)c(C(=O)OCC(C)C)c2)SCCO1 [Compound 74, 2-Methylpropyl 2-chloro-5-[[(2-ethyl-5,6-dihydro-1,4-oxathiin-3-yl)carbonyl]amino]benzoate]	–	–	EC50 (HIV [2]; [4]): 38900 nM
CCCOC(=O)c1ccc(C)c(NC(=O)C2=C(C)OCCS2)c1 [Compound 75, Propyl 3-[[(5,6-dihydro-2-methyl-1,4-oxathiin-3-yl)carbonyl]amino]-4-methylbenzoate]	908 nM	–	EC50 (HIV [2]; [4]): 1060 nM
CCCCOC(=O)c1cccc(NC(=O)C2=C(C)OCCS2)c1 [Compound 76]	–	MA (moderate activity (MA), that is, inhibition between approximately 20 and 50%)	–

Compound	EC50 (HIV [2])	Activity class of Anti-HIV Compounds, CEM-6 (HIV [2])	further results
Cc1occc1C(=O)Nc1ccc(Cl)c(C(=O)OC(C)C)c1 [Compound 79, 1-Methylethyl 2-chloro-5-[[(2-methyl-3-furanyl)carbonyl]amino]benzoate]	3300 nM	–	–
Cc1coc(C)c1C(=O)Nc1ccc(Cl)c(C(=O)OC(C)C)c1 [Compound 80, 1-Methylethyl 2-chloro-5-[[(2,4-dimethyl-3-furanyl)carbonyl]amino]benzoate]	2300 nM	–	–
Cc1cc(C(=O)Nc2ccc(Cl)c(C(=O)OC(C)C)c2)c(C)o1 [Compound 81, 1-Methylethyl 2-chloro-5-[[(2,5-dimethyl-3-furanyl)carbonyl]amino]benzoate]	–	–	EC50 (HIV [2]; [4]): 420 nM
COCCOC(=O)c1cc(NC(=O)c2ccccc2)ccc1Cl [Compound 84, 2-Methoxyethyl 5-[benzoylamino)-2-chlorobenzoate]	–	MA (moderate activity (MA), that is, inhibition between approximately 20 and 50%)	–
CCOC(=O)c1cc(NC(=O)c2ccccc2OC)ccc1Cl [Compound 86, Ethyl 2-chloro-5-[(2-methoxybenzoyl)amino]benzoate]	1360 nM	–	EC50 (HIV [2]; [4]): 1740 nM
CCOC(=O)c1cc(NC(=O)c2ccccc2)ccc1Cl [Compound 87, Ethyl 5-(benzoylamino)-2-chlorobenzoate]	–	MA (moderate activity (MA), that is, inhibition between approximately 20 and 50%)	–
CC(C)OC(=O)c1cc(NC(=O)c2ccccc2Cl)ccc1Cl [Compound 90, 1-Methylethyl 2-chloro-5-[(2-chlorobenzoyl)amino]benzoate]	–	MA (moderate activity (MA), that is, inhibition between approximately 20 and 50%)	–
CC(C)=CC(=O)Nc1ccc(Cl)c(C(=O)OC(C)C)c1 [Compound 91, 1-Methylethyl 2-chloro-5-[(3-methyl-1-oxo-2-butenyl)amino]-benzoate]	–	MA (moderate activity (MA), that is, inhibition between approximately 20 and 50%)	–
C#CCOC(=O)Nc1ccc(Cl)c(C(=O)OC(C)C)c1 [Compound 92, 1-Methylethyl 2-chloro-5-[((2-propynyloxy)carbonyl]amino]benzoate]	–	MA (moderate activity (MA), that is, inhibition between approximately 20 and 50%)	–
Cc1nc(C(=O)Nc2ccc(Cl)c(C(=O)OC(C)C)c2)c(-c2ccccc2)o1 [Compound 103]	–	MA (moderate activity (MA), that is, inhibition between approximately 20 and 50%)	–
CC(C)OC(=O)c1cc(NC(=O)c2cc3ccccc3[nH]2)ccc1Cl [Compound 104]	–	MA (moderate activity (MA), that is, inhibition between approximately 20 and 50%)	–
Cc1nc(-c2ccccc2)c(C(=O)Nc2ccc(Cl)c(C(=O)OC(C)C)c2)o1 [Compound 105]	–	MA (moderate activity (MA), that is, inhibition between approximately 20 and 50%)	–
Cc1ccsc1C(=O)Nc1ccc(Cl)c(C(=O)OC(C)C)c1 [Compound 106]	2200 nM	–	–
CC(C)OC(=O)c1cc(NC(=O)C2=CCCCC2)ccc1Cl [Compound 107]	–	MA (moderate activity (MA), that is, inhibition between approximately 20 and 50%)	–
Cc1cc(C)c(C(=O)Nc2ccc(Cl)c(C(=O)OC(C)C)c2)s1 [Compound 108]	–	MA (moderate activity (MA), that is, inhibition between approximately 20 and 50%)	–
CC(C)OC(=O)c1cc(NC(=O)c2ccsc2)ccc1Cl [Compound 109]	–	MA (moderate activity (MA), that is, inhibition between approximately 20 and 50%)	–
Ethyl 5-[(2-aminobenzoyl)amino]-2-chlorobenzoate [Compound 88]	5700 nM and 3100 nM	–	–

Source: patent US5268389A, “Thiocarboxylate ester compounds compositions containing the same” (priority 1990, dated 1993)
